# Source: US20170334899A1, “AMINO-SUBSTITUTED ISOTHIAZOLES” (Bayer Pharma Aktiengesellschaft, priority 2014, published 2017)
# System: human cervical tumor cell line HeLa (ATCC CCL-2)
# Test: SAC-Formation - Nocodazole-Induced Assay
# Type: cell-based
# Conditions: Homo sapiens, HeLa, 24 h, HeLa cells, nocodazole 0.1 μg/ml together with test compound, decrease of mitotic cells (phospho-histone H3 Ser10)
# In short: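 Loss of phospho-histone H3 Ser10-positive cells, counted against Hoechst-stained nuclei by high-content imaging, marked mitotic breakthrough. Compounds (0.005–20 μM, 0.5% DMSO) were co-dosed with 0.1 μg/ml nocodazole onto HeLa cells for 24 h at 37 °C. Curves were fitted with a four-parameter Hill equation.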
row,Structure (SMILES),IC50
1,"Cc1nsc(Nc2cnc3cc(F)ccc3n2)c1C(=O)Nc1ccc(S(N)(=O)=O)cc1 [Example 149, 5-[(6-fluoroquinoxalin-2-yl)amino]-3-methyl-N-(4-sulfamoylphenyl)-1,2-thiazole-4-carboxamide]",470 nM
2,"Cc1nsc(Nc2ccc(C#N)cn2)c1C(=O)Nc1cccc(S(C)(=O)=O)c1 [Example 150, 5-[(5-cyanopyridin-2-yl)amino]-3-methyl-N-[3-(methylsulfonyl)phenyl]-1,2-thiazole-4-carboxamide]",160 nM
3,"Cc1nsc(Nc2cnc(C(F)(F)F)cn2)c1C(=O)Nc1ccc(F)c(C(N)=O)c1 [Example 151, N-(3-carbamoyl-4-fluorophenyl)-3-methyl-5-{[5-(trifluoromethyl)pyrazin-2-yl]amino}-1,2-thiazole-4-carboxamide]",290 nM
4,"CC(=O)Nc1cc(NC(=O)c2c(C)nsc2Nc2ccc(C#N)cn2)ccc1F [Example 152, N-(3-acetamido-4-fluorophenyl)-5-[(5-cyanopyridin-2-yl)amino]-3-methyl-1,2-thiazole-4-carboxamide]",8400 nM
5,"Cc1nsc(Nc2cnc(C(F)(F)F)cn2)c1C(=O)Nc1ccc(C(=O)NCCN2CCCC(F)(F)C2)cc1 [Example 153, N-(4-{[2-(3,3-difluoropiperidin-1-yl)ethyl]carbamoyl}phenyl)-3-methyl-5-{[5-(trifluoromethyl)pyrazin-2-yl]amino}-1,2-thiazole-4-carboxamide]",65 nM
6,"Cc1nsc(Nc2cnc(C(F)(F)F)cn2)c1C(=O)Nc1ccc(C(=O)N2CCN(CC(F)F)CC2)cc1 [Example 154, N-(4-{[4-(2,2-difluoroethyl)piperazin-1-yl]carbonyl}phenyl)-3-methyl-5-{[5-(trifluoromethyl)pyrazin-2-yl]amino}-1,2-thiazole-4-carboxamide]",710 nM
7,"Cc1nsc(Nc2cncc(C(F)(F)F)n2)c1C(=O)Nc1ccc(C(=O)NCCN2CCCC(F)C2)cc1 (stereo not shown) [Example 155, N-(4-{[2-(3-fluoropiperidin-1-yl)ethyl]carbamoyl}phenyl)-3-methyl-5-{[6-(trifluoromethyl)pyrazin-2-yl]amino}-1,2-thiazole-4-carboxamide]",1700 nM
8,"Cc1nsc(Nc2cnc3ccccc3n2)c1C(=O)Nc1ccc(C(=O)NCCN2CCCC(F)(F)C2)cc1 [Example 156, N-(4-{[2-(3,3-difluoropiperidin-1-yl)ethyl]carbamoyl}phenyl)-3-methyl-5-(quinoxalin-2-ylamino)-1,2-thiazole-4-carboxamide]",2100 nM
9,"Cc1nsc(Nc2cnc3ccccc3n2)c1C(=O)Nc1ccc(C(=O)N2CCN(CC(F)F)CC2)cc1 [Example 157, N-(4-{[4-(2,2-difluoroethyl)piperazin-1-yl]carbonyl}phenyl)-3-methyl-5-(quinoxalin-2-ylamino)-1,2-thiazole-4-carboxamide]",1700 nM
10,"Cc1nsc(Nc2cnc3ccccc3n2)c1C(=O)Nc1ccc(C(=O)NC2CN(C(=O)OC(C)(C)C)CC(F)(F)C2)cc1 (stereo not shown) [Example 158, tert-butyl 3,3-difluoro-5-{[4-({[3-methyl-5-(quinoxalin-2-ylamino)-1,2-thiazol-4-yl]carbonyl}amino)benzoyl]amino} piperidine-1-carboxylate]",240 nM
11,Cc1nsc(Nc2cnc3ccccc3n2)c1C(=O)Nc1ccc(C(=O)N2CCCN(CC(F)(F)F)CC2)cc1 [Example 159],1500 nM

# Second part, the compound after the results:
row,IC50,Structure (SMILES)
1,53 nM,"Cc1nsc(Nc2cnc(C(F)(F)F)cn2)c1C(=O)Nc1ccc(OC[C@@H]2CCN(CC(F)F)C2)nc1 [Example 127, N-(6-{[(3R)-1-(2,2-difluoroethyl)pyrrolidin-3-yl]methoxy}pyridin-3-yl)-3-methyl-5-{[5-(trifluoromethyl)pyrazin-2-yl]amino}-1,2-thiazole-4-carboxamide]"
2,15 nM,"Cc1nsc(Nc2cnc(C(F)(F)F)cn2)c1C(=O)Nc1ccc(OC[C@@H]2CCN(CC(F)(F)F)C2)nc1 [Example 128, 3-Methyl-N-(6-{[(3R)-1-(2,2,2-trifluoroethyl)pyrrolidin-3-yl]methoxy}pyridin-3-yl)-5-{[5-(trifluoromethyl)pyrazin-2-yl]amino}-1,2-thiazole-4-carboxamide]"
3,32 nM,"Cc1nsc(Nc2cnc(C(F)(F)F)cn2)c1C(=O)Nc1ccc(OC[C@@H]2CCN(CCC(F)(F)F)C2)nc1 [Example 129, 3-Methyl-5-{[5-(trifluoromethyl)pyrazin-2-yl]amino}-N-(6-{[(3R)-1-(3,3,3-trifluoropropyl)pyrrolidin-3-yl]methoxy}pyridin-3-yl)-1,2-thiazole-4-carboxamide]"
4,27 nM,"Cc1nsc(Nc2cnc(C(F)(F)F)cn2)c1C(=O)Nc1ccc(OC[C@H]2CCN(CC(F)F)C2)nc1 [Example 132, N-(6-{[(3S)-1-(2,2-difluoroethyl)pyrrolidin-3-yl]methoxy}pyridin-3-yl)-3-methyl-5-{[5-(trifluoromethyl)pyrazin-2-yl]amino}-1,2-thiazole-4-carboxamide]"
5,36 nM,"Cc1nsc(Nc2cnc(C(F)(F)F)cn2)c1C(=O)Nc1ccc(OC[C@H]2CCN(CCC(F)(F)F)C2)nc1 [Example 134, 3-Methyl-5-{[5-(trifluoromethyl)pyrazin-2-yl]amino}-N-(6-{[(3S)-1-(3,3,3-trifluoropropyl)pyrrolidin-3-yl]methoxy}pyridin-3-yl)-1,2-thiazole-4-carboxamide]"
6,34 nM,"Cc1nsc(Nc2cnc(C(F)(F)F)cn2)c1C(=O)Nc1ccc(O[C@@H]2CCN(CC(F)F)C[C@@H]2F)nc1 [Example 137, N-(6-{[(3S,4R)-1-(2,2-difluoroethyl)-3-fluoropiperidin-4-yl]oxy}pyridin-3-yl)-3-methyl-5-{[5-(trifluoromethyl)pyrazin-2-yl]amino}-1,2-thiazole-4-carboxamide]"
7,110 nM,"Cc1nsc(Nc2cnc(C(F)(F)F)cn2)c1C(=O)Nc1ccc(O[C@@H]2CCN(CC(F)(F)F)C[C@@H]2F)nc1 [Example 138, N-(6-{[(3S,4R)-3-fluoro-1-(2,2,2-trifluoroethyl)piperidin-4-yl]oxy}pyridin-3-yl)-3-methyl-5-{[5-(trifluoromethyl)pyrazin-2-yl]amino}-1,2-thiazole-4-carboxamide]"
8,16 nM,"Cc1nsc(Nc2cnc(C(F)(F)F)cn2)c1C(=O)Nc1ccc(O[C@@H]2CCN(CCC(F)(F)F)C[C@@H]2F)nc1 [Example 139, N-(6-{[(3S,4R)-3-fluoro-1-(3,3,3-trifluoropropyl)piperidin-4-yl]oxy}pyridin-3-yl)-3-methyl-5-{[5-(trifluoromethyl)pyrazin-2-yl]amino}-1,2-thiazole-4-carboxamide]"
9,60 nM,"CCCN1CC[C@@H](Oc2ccc(NC(=O)c3c(C)nsc3Nc3cnc(C(F)(F)F)cn3)cn2)[C@@H](F)C1 [Example 140, N-(6-{[(3S,4R)-3-fluoro-1-propylpiperidin-4-yl]oxy}pyridin-3-yl)-3-methyl-5-{[5-(trifluoromethyl)pyrazin-2-yl]amino}-1,2-thiazole-4-carboxamide]"
10,36 nM,"CCCCN1CC[C@@H](Oc2ccc(NC(=O)c3c(C)nsc3Nc3cnc(C(F)(F)F)cn3)cn2)[C@@H](F)C1 [Example 141, N-(6-{[(3S,4R)-1-butyl-3-fluoropiperidin-4-yl]oxy}pyridin-3-yl)-3-methyl-5-{[5-(trifluoromethyl)pyrazin-2-yl]amino}-1,2-thiazole-4-carboxamide]"
11,36 nM,"Cc1nsc(Nc2cnc(C(F)(F)F)cn2)c1C(=O)Nc1ccc(O[C@H]2CCN(CC(F)F)C[C@H]2F)nc1 [Example 144, N-(6-{[(3R,4S)-1-(2,2-difluoroethyl)-3-fluoropiperidin-4-yl]oxy}pyridin-3-yl)-3-methyl-5-{[5-(trifluoromethyl)pyrazin-2-yl]amino}-1,2-thiazole-4-carboxamide]"
12,13 nM,"Cc1nsc(Nc2cnc(C(F)(F)F)cn2)c1C(=O)Nc1ccc(O[C@H]2CCN(CC(F)(F)F)C[C@H]2F)nc1 [Example 145, N-(6-{[(3R,4S)-3-fluoro-1-(2,2,2-trifluoroethyl)piperidin-4-yl]oxy}pyridin-3-yl)-3-methyl-5-{[5-(trifluoromethyl)pyrazin-2-yl]amino}-1,2-thiazole-4-carboxamide]"
13,63 nM,"Cc1nsc(Nc2cnc(C(F)(F)F)cn2)c1C(=O)Nc1ccc(O[C@H]2CCN(CCC(F)(F)F)C[C@H]2F)nc1 [Example 146, N-(6-{[(3R,4S)-3-fluoro-1-(3,3,3-trifluoropropyl)piperidin-4-yl]oxy}pyridin-3-yl)-3-methyl-5-{[5-(trifluoromethyl)pyrazin-2-yl]amino}-1,2-thiazole-4-carboxamide]"
14,5.9 nM,"CCCN1CC[C@H](Oc2ccc(NC(=O)c3c(C)nsc3Nc3cnc(C(F)(F)F)cn3)cn2)[C@H](F)C1 [Example 147, N-(6-{[(3R,4S)-3-fluoro-1-propylpiperidin-4-yl]oxy}pyridin-3-yl)-3-methyl-5-{[5-(trifluoromethyl)pyrazin-2-yl]amino}-1,2-thiazole-4-carboxamide]"
15,210 nM,"CCCCN1CC[C@H](Oc2ccc(NC(=O)c3c(C)nsc3Nc3cnc(C(F)(F)F)cn3)cn2)[C@H](F)C1 [Example 148, N-(6-{[(3R,4S)-1-butyl-3-fluoropiperidin-4-yl]oxy}pyridin-3-yl)-3-methyl-5-{[5-(trifluoromethyl)pyrazin-2-yl]amino}-1,2-thiazole-4-carboxamide]"
16,2000 nM,"Cc1nsc(Nc2cnc(C(F)(F)F)cn2)c1C(=O)Nc1ccc(OC2CCN(C(C)C)CC2)nc1 [Example 160, N-{6-[(1-isopropylpiperidin-4-yl)oxy]pyridin-3-yl}-3-methyl-5-{[5-(trifluoromethyl)pyrazin-2-yl]amino}-1,2-thiazole-4-carboxamide]"
17,160 nM,"Cc1nsc(Nc2cnc(C(F)(F)F)cn2)c1C(=O)Nc1ccc(OC2CCN(CCF)CC2)c(F)c1 [Example 162, N-(3-fluoro-4-{[1-(2-fluoroethyl)piperidin-4-yl]oxy}phenyl)-3-methyl-5-{[5-(trifluoromethyl)pyrazin-2-yl]amino}-1,2-thiazole-4-carboxamide]"
